Experimental findings from US10350271B2, “Lipidated peptides for lowering blood glucose” (USTAV ORGANICKE CHEMIE A BIOCHEMIE AKADEMIE VED CR, V.V.I., priority 2014, dated 2019) are described below.

Square brackets hold non-standard residues; d marks the D form. Ends that are not written are not given here. Peptide text beside a SMILES is read from it. * marks the point of attachment. Phe(F5) = N[C@@H](Cc1c(F)c(F)c(F)c(F)c1F)C(=O)O; Stearoyl = CCCCCCCCCCCCCCCCCC(=O)*; Palmitoyl = CCCCCCCCCCCCCCCC(=O)*; Myristoyl = CCCCCCCCCCCCCC(=O)*; Decanoyl = CCCCCCCCCC(=O)*; Nle = CCCC[C@H](N)C(=O)O

One test has as its system C57BL/6 mice. Put plainly: Food intake in fasted mice after SC injection. Format: in vivo. To be noted: 5 mg/kg SC, 45 min after injection. As for the experimental part: NMRI mice, C57BL/6 mice, and Wistar rats (AnLab, Prague, Czech Republic) were housed in a temperature of 23° C. and a daily cycle of 12 h light and dark (light from 6:00). They were given ad libitum water and a standard chow diet that contained 25, 9 and 66% of calories of protein, fat and carbohydrate respectively. Energy content of the feed was 3.4 kcal/g (St-1, Mlýn Kocanda, Czech Republic). Db/db mice and their controls (C57BL/6 background) were obtained from Taconic (Denmark), housed under the same conditions as described above, and fed by Altromin (Taconic, Denmark). ZDF-Lepr^fa/Crl, diabetic fa/fa male rats were obtained from Charles River (France), housed under same conditions as described above, and fed with a Purina 5008 diet (IPS Product Supplies Limited, UK). All experiments followed the ethical guidelines for animal experiments and the law of the Czech Republic Nr. 246/1992.
In experiments with C57BL/6 mice or Wistar rats, food intake was measured with overnight fasted animals in individual cages. Food was withdrawn 17 hours prior to injection of lipidated analog of prolactin releasing peptide (PrRP); free access to water was maintained. The administration of either saline, PrRP, or lipidated analogs was performed by SC injection at doses of 1-10 mg/kg (which corresponded to a volume of 0.2 ml/mouse and 0.1 ml/100 g weight of rat). Fifteen minutes after the lipidated analog of prolactin releasing peptide (PrRP) administration, the mice were given pre-weighed food. The food was then weighed every 30 minutes for 5-10 hours. The administration of each dose was performed at least twice, and each group of mice consisted of at least 6 mice.

Test [1] deals with T1, human PrRP receptor GPR10 (Homo sapiens, UniProt P49683).
T1 construct: host or cells: CHO cells
T1 sequence (P49683 1-370): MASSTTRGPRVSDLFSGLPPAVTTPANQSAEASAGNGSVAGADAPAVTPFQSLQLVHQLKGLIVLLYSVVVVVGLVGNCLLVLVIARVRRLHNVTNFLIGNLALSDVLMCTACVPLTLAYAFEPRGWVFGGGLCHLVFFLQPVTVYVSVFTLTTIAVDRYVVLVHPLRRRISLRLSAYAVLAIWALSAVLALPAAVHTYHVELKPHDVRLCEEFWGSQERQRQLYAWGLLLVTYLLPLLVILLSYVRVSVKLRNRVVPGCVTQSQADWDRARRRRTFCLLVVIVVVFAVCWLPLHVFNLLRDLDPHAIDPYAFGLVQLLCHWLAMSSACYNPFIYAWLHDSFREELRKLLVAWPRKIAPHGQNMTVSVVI
Description: Competitive binding in CHO cells transfected with human GPR10 (human 125I-PrRP31). As to conditions: for Ki: CHO cells, human 125I-PrRP31, read-out: Ki, GPR10 human receptor transfected in CHO cells; for % of PrRP31, GPR10 human receptor transfected in CHO cells: affinity relative to PrRP31. The procedure, abridged: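 Values from one-site nonlinear regression of displacement curves: analogs (final 10^-11 to 10^-4 mol·l^-1) competed with 125I-PrRP31 (final 5×10^-11 mol·l^-1) on adherent human GPR10 CHO cells. Binding ran 1 h at room temperature, pH 7.4 buffer with NaCl, MgCl2, CaCl2, glucose, BSA; cell-bound radioactivity counted after NaOH lysis.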

Another test concerns the target T2, rat PrRP receptor (Rattus norvegicus, UniProt Q64121).
T2 construct: host or cells: RC-4B/C rat pituitary cell line
T2 sequence (Q64121 1-370): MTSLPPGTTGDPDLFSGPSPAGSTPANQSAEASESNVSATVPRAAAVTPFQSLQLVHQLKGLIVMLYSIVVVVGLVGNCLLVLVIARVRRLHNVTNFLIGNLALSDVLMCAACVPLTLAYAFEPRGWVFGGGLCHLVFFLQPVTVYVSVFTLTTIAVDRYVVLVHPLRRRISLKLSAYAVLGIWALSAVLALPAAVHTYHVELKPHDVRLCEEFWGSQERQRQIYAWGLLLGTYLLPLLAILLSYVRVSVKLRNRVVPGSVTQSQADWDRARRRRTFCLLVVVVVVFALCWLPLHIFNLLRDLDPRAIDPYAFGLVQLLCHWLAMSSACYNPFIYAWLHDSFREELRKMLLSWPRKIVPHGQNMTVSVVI
Put plainly: Competitive binding in RC-4B/C rat pituitary cells (125I-rat PrRP31). As to conditions: for Ki: displacement of 125I-rat PrRP31, read-out: Ki, RC-4B/C rat pituitary cells ^25I-rat PrRP31; for % of PrRP31, RC-4B/C rat pituitary cells: affinity relative to PrRP31. The procedure, abridged: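 Displacement of rat 125I-PrRP31 ([…]) by test analogs, 10^−11–10^−4 mol·l^−1, on whole RC-4B/C cells, 60 min RT. Bound counts measured by γ-counter in duplicate, ≥3 repeats, analyzed by nonlinear one-site binding regression.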
(In general: Displacement assays read how much labelled ligand stays bound in the presence of the test substance.)

Take `CCCCCCCCCC(=O)N[C@H](C(=O)N1CCC[C@H]1C(=O)N[C@@H](CC(=O)O)C(=O)N[C@H](C(=O)N[C@@H](CC(N)=O)C(=O)N1CCC[C@H]1C(=O)N[C@@H](C)C(=O)N[C@@H](Cc1c[nH]c2ccccc12)C(=O)N[C@@H](Cc1ccc(O)cc1)C(=O)N[C@@H](C)C(=O)N[C@@H](CO)C(=O)N[C@@H](CCCNC(=N)N)C(=O)NCC(=O)N[C@H](C(=O)N[C@@H](CCCNC(=N)N)C(=O)N1CCC[C@H]1C(=O)N[C@H](C(=O)NCC(=O)N[C@@H](CCCNC(=N)N)C(=O)N[C@@H](Cc1ccccc1)C(N)=O)C(C)C)[C@@H](C)CC)[C@@H](C)CC)[C@@H](C)O` [Analog 40] (Decanoyl-TPDINPAWYASRGIRPVGRF-NH2): the “Food intake in mice % of saline-treated group” value (“Food intake in mice %” below) with C57BL/6 mice worked out at 100%. Moreover, the Ki turned out to be 3.02 ± 0.49 nM in test [1] and 0.41 ± 0.01 nM at rat PrRP receptor (RC-4B/C cells). In addition, the “% of PrRP31, GPR10 human receptor transfected in CHO cells” value (“% of PrRP31 … in CHO cells” below) in test [1] stood at 129%. Besides, the “Displacement of human 125I-PrRP binding” value in test [1] (human GPR10 receptor) was “nmol·l^−1 range”. For the same molecule, on rat PrRP receptor (RC-4B/C cells, rat PrRP receptor), the “Displacement of rat 125I-PrRP binding” value is recorded as “nmol·l^−1 range”. Besides, the “% of PrRP31, RC-4B/C rat pituitary cells” value at rat PrRP receptor amounted to 1202%.
Turning to `CCCCCCCCCCCCCCCC(=O)N[C@@H](CO)C(=O)N[C@@H](CCCNC(=N)N)C(=O)N[C@@H](C)C(=O)N[C@@H](Cc1c[nH]cn1)C(=O)N[C@@H](CCC(N)=O)C(=O)N[C@@H](Cc1c[nH]cn1)C(=O)N[C@@H](CO)C(=O)N[C@@H](CCCC)C(=O)N[C@@H](CCC(=O)O)C(=O)N[C@H](C(=O)N[C@@H](CCCNC(=N)N)C(=O)N[C@H](C(=O)N1CCC[C@H]1C(=O)N[C@@H](CC(=O)O)C(=O)N[C@H](C(=O)N[C@@H](CC(N)=O)C(=O)N1CCC[C@H]1C(=O)N[C@@H](C)C(=O)N[C@@H](Cc1c[nH]c2ccccc12)C(=O)N[C@@H](Cc1ccc(O)cc1)C(=O)N[C@H](C(=O)NCC(=O)N[C@@H](CCCNC(=N)N)C(=O)NCC(=O)N[C@H](C(=O)N[C@@H](CCCNC(=N)N)C(=O)N1CCC[C@H]1C(=O)N[C@H](C(=O)NCC(=O)N[C@@H](CCCNC(=N)N)C(=O)N[C@@H](Cc1c(F)c(F)c(F)c(F)c1F)C(N)=O)C(C)C)[C@@H](C)CC)[C@@H](C)O)[C@@H](C)CC)[C@@H](C)O)[C@@H](C)O` [Analog 22] (Palmitoyl-SRAHQHS[Nle]ETRTPDINPAWYTGRGIRPVGR[Phe(F5)]-NH2), the “Food intake in mice %” value in the test with C57BL/6 mice was 41%. For the same molecule, the “% of PrRP31 … in CHO cells” value in test [1] is reported as 203%. The “% of PrRP31, RC-4B/C rat pituitary cells” value at rat PrRP receptor is 966%.
For `CCCCCCCCCCCCCCCCCC(=O)N[C@@H](CO)C(=O)N[C@@H](CCCNC(=N)N)C(=O)N[C@@H](C)C(=O)N[C@@H](Cc1c[nH]cn1)C(=O)N[C@@H](CCC(N)=O)C(=O)N[C@@H](Cc1c[nH]cn1)C(=O)N[C@@H](CO)C(=O)N[C@@H](CCCC)C(=O)N[C@@H](CCC(=O)O)C(=O)N[C@H](C(=O)N[C@@H](CCCNC(=N)N)C(=O)N[C@H](C(=O)N1CCC[C@H]1C(=O)N[C@@H](CC(=O)O)C(=O)N[C@H](C(=O)N[C@@H](CC(N)=O)C(=O)N1CCC[C@H]1C(=O)N[C@@H](C)C(=O)N[C@@H](Cc1c[nH]c2ccccc12)C(=O)N[C@@H](Cc1ccc(O)cc1)C(=O)N[C@H](C(=O)NCC(=O)N[C@@H](CCCNC(=N)N)C(=O)NCC(=O)N[C@H](C(=O)N[C@@H](CCCNC(=N)N)C(=O)N1CCC[C@H]1C(=O)N[C@H](C(=O)NCC(=O)N[C@@H](CCCNC(=N)N)C(=O)N[C@@H](Cc1ccccc1)C(N)=O)C(C)C)[C@@H](C)CC)[C@@H](C)O)[C@@H](C)CC)[C@@H](C)O)[C@@H](C)O` [Analog 9] (Stearoyl-SRAHQHS[Nle]ETRTPDINPAWYTGRGIRPVGRF-NH2), in that order: 3.5%, 7% and 514%.
Taken in the same sequence, the figures for “SRAHQHSMETRTPDINPAWYTGRGIRPVGRF-NH2 [Rat PrRP31, reference compound]” were 100%, 100% and 100%.
With `CCCCCCCCCCCCCC(=O)N[C@@H](CO)C(=O)N[C@@H](Cc1c[nH]cn1)C(=O)N[C@@H](CCC(N)=O)C(=O)N[C@@H](CCCNC(=N)N)C(=O)N1CCC[C@H]1C(=O)N[C@@H](C)C(=O)N[C@@H](CC(=O)O)C(=O)N[C@H](C(=O)N[C@@H](Cc1c[nH]cn1)C(=O)N[C@@H](Cc1c[nH]c2ccccc12)C(=O)N[C@@H](Cc1ccc(O)cc1)C(=O)N1CCC[C@H]1C(=O)N[C@@H](CCCNC(=N)N)C(=O)NCC(=O)N[C@@H](CCCC)C(=O)N[C@@H](Cc1ccccc1)C(=O)N1CCC[C@H]1C(=O)N[C@H](C(=O)N[C@H](C(=O)NCC(=O)N[C@@H](CCCNC(=N)N)C(=O)N[C@H](C(=O)N[C@H](C(=O)N[C@@H](C)C(=O)N[C@@H](CCCNC(=N)N)C(=O)N[C@@H](CC(N)=O)C(=O)NCC(=O)N[C@@H](CCC(=O)O)C(=O)N[C@H](C(=O)N[C@@H](CO)C(=O)N[C@@H](CCCNC(=N)N)C(=O)O)C(C)C)[C@@H](C)O)[C@@H](C)CC)[C@@H](C)CC)[C@@H](C)O)[C@@H](C)O` [Analog 20] (Myristoyl-SHQRPADTHWYPRG[Nle]FPTIGRITARNGEVSR-OH; C-terminus assumed), in the test on C57BL/6 mice, the “Food intake in mice %” value is on record as 100%. In test [1], the Ki was determined as 262 ± 55.4 nM and the “% of PrRP31 … in CHO cells” value was determined as 1.5%. Also, the Ki at rat PrRP receptor (RC-4B/C cells) was 123 ± 16.1 nM. On rat PrRP receptor, the “% of PrRP31, RC-4B/C rat pituitary cells” value is 4.6%.
As for `CCCCCCCCCCCCCCCC(=O)NCCCC[C@H](NC(=O)[C@@H]1CCCN1C(=O)[C@H](CC(N)=O)NC(=O)[C@@H](NC(=O)[C@H](CC(=O)O)NC(=O)[C@@H]1CCCN1C(=O)[C@@H](NC(=O)[C@H](CCCNC(=N)N)NC(=O)[C@@H](NC(=O)[C@H](CCC(=O)O)NC(=O)[C@H](CCSC)NC(=O)[C@H](CO)NC(=O)[C@H](Cc1c[nH]cn1)NC(=O)[C@H](CCCNC(=N)N)NC(=O)[C@H](Cc1c[nH]cn1)NC(=O)[C@@H](NC(=O)[C@H](CCCNC(=N)N)NC(=O)[C@@H](N)CO)[C@@H](C)O)[C@@H](C)CC)[C@@H](C)O)[C@@H](C)CC)C(=O)N[C@@H](Cc1c[nH]c2ccccc12)C(=O)N[C@@H](Cc1ccc(O)cc1)C(=O)N[C@@H](C)C(=O)N[C@@H](CO)C(=O)N[C@@H](CCCNC(=N)N)C(=O)NCC(=O)N[C@H](C(=O)N[C@@H](CCCNC(=N)N)C(=O)N1CCC[C@H]1C(=O)N[C@H](C(=O)NCC(=O)N[C@@H](CCCNC(=N)N)C(=O)N[C@@H](Cc1ccccc1)C(N)=O)C(C)C)[C@@H](C)CC` [Analog 51] (H-SRTHRHSMEIRTPDINPK(Palmitoyl)WYASRGIRPVGRF-NH2), the “Food intake in mice %” value with C57BL/6 mice amounted to 20%. Moreover, in test [1], the Ki turned out to be 7.24 ± 0.13 nM and the “% of PrRP31 … in CHO cells” value is recorded as 54%.
